Tests used:
[1] = tested on: MM1S (Plasma Cell Myeloma); assay: combination Emax (second highest fraction inhibited in the dose matrix, 72 h); higher = more inhibition; extreme values may be limits of the assay
Procedure, shortened: (§1)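 Cell lines in DMEM/F12 or RPMI with 10% FBS were plated in 1536-well plates, held 24 hours at 37°C, 5% CO2, then given two-drug dose matrices for 72 hours (DMSO typically 0.2%). Viability was read by CellTiter-Glo 2.0 luminescence and scaled as inhibition from 0 (vehicle wells) to 1 (blank wells). Combination Emax is the second-highest inhibition in the matrix; Bliss excess is observed combination effect minus expected EA + EB − EA·EB, EA and EB being single-agent effects.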

[2] = tested on: UACC-257 (Melanoma); assay: as above
Procedure, shortened: as §1

[3] = tested on: OVCAR-3 (Ovarian Carcinoma); assay: as above
Procedure, shortened: as §1

[4] = tested on: WM35 (Melanoma); assay: as above
Procedure, shortened: as §1

[5] = tested on: SNU-423 (Hepatocellular Carcinoma); assay: as above
Procedure, shortened: as §1

[6] = tested on: DBTRG-05MG (Glioblastoma); assay: as above
Procedure, shortened: as §1

[7] = tested on: NB1 (Neuroblastoma); assay: as above
Procedure, shortened: as §1

[8] = tested on: T84 (Colorectal Carcinoma); assay: as above
Procedure, shortened: as §1

[9] = tested on: MOLT-13 (T-Lymphoblastic Leukemia); assay: as above
Procedure, shortened: as §1

[10] = tested on: NAMALWA (Burkitt's Lymphoma); assay: as above
Procedure, shortened: as §1

[11] = tested on: T47D (Breast Carcinoma); assay: as above
Procedure, shortened: as §1

[12] = tested on: HPAF-II (Pancreatic Carcinoma); assay: as above
Procedure, shortened: as §1

[13] = tested on: BHT-101 (Thyroid Gland Carcinoma); assay: as above
Procedure, shortened: as §1

[14] = tested on: PL4 (Pancreatic Carcinoma); assay: as above
Procedure, shortened: as §1

[15] = tested on: KP-4 (Pancreatic Carcinoma); assay: as above
Procedure, shortened: as §1

[16] = tested on: HPAF-II (Pancreatic Carcinoma); assay: Bliss excess, mean over the matrix (fraction); higher = more synergy
Procedure, shortened: as §1
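Wherever Bliss excess, mean over the matrix is given: after 72 h of two-drug dosing.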

SMILES | combination Emax [1] | combination Emax [2] | combination Emax [3] | combination Emax [4] | combination Emax [5] | combination Emax [6] | combination Emax [7] | combination Emax [8] | combination Emax [9] | combination Emax [10] | combination Emax [11] | combination Emax [12] | combination Emax [13] | combination Emax [14] | combination Emax [15] | Bliss excess [16]
NC1(C(=O)N[C@@H](CCO)c2ccc(Cl)cc2)CCN(c2ncnc3[nH]ccc23)CC1 [Capivasertib] + CC(C)n1c(=O)n(C)c2cnc3cc(F)c(-c4ccc(OCCCN5CCCCC5)nc4)cc3c21 [AZD1390] (first compound max 10 µM, 7x7, partner max 0.3 µM) | 0.999 | 0.26 | 0.227 | 0.259 | 0.503 | 0.243 | 0.626 | 0.367 | 0.132 | 0.44 | 0.37 | 0.245 | 0.341 | 0.24 | 0.355 | -0.0016
NC1(C(=O)N[C@@H](CCO)c2ccc(Cl)cc2)CCN(c2ncnc3[nH]ccc23)CC1 [Capivasertib] + CCN(CCO)CCCOc1ccc2c(Nc3cc(CC(=O)Nc4cccc(F)c4)[nH]n3)ncnc2c1 [AZD2811] (first compound max 10 µM, 7x7, partner max 1 µM) | 0.998 | 0.394 | 0.344 | 0.328 | 0.571 | 0.317 | 0.79 | 0.389 | 0.992 | 0.713 | 0.456 | 0.218 | 0.353 | 0.393 | 0.682 | 0.0052
NC1(C(=O)N[C@@H](CCO)c2ccc(Cl)cc2)CCN(c2ncnc3[nH]ccc23)CC1 [Capivasertib] + COc1nnc2ccc(N3CCC(c4ccc(OCCN5CCN(C)C(=O)[C@H]5C)cc4)CC3)nn12 [AZD5153] (first compound max 10 µM, 7x7, partner max 1 µM) | 1 | 0.355 | 0.526 | 0.538 | 0.513 | 0.206 | 0.885 | 0.367 | 0.873 | 0.961 | 0.477 | 0.389 | 0.759 | 0.613 | 0.58 | 0.0188
NC1(C(=O)N[C@@H](CCO)c2ccc(Cl)cc2)CCN(c2ncnc3[nH]ccc23)CC1 [Capivasertib] + C[C@@H]1COCCN1C2=NC(=NC(=C2)C3(CC3)[S@](=N)(=O)C)C4=C5C=CNC5=NC=C4 [AZD6738] (first compound max 10 µM, 7x7, partner max 10 µM) | 0.99 | 0.389 | 0.461 | 0.311 | 0.586 | 0.372 | 0.853 | 0.68 | 0.957 | 0.937 | 0.481 | 0.5 | 0.681 | 0.777 | 0.597 | -0.0105
NC1(C(=O)N[C@@H](CCO)c2ccc(Cl)cc2)CCN(c2ncnc3[nH]ccc23)CC1 [Capivasertib] + Cn1cnc2c(F)c(Nc3ccc(Br)cc3Cl)c(C(=O)NOCCO)cc21 [Selumetinib] (first compound max 10 µM, 7x7, partner max 10 µM) | 1 | 0.731 | 0.317 | 0.782 | 0.491 | 0.431 | 0.776 | 0.539 | 0.555 | 0.387 | 0.42 | 0.75 | 0.902 | 0.726 | 0.483 | 0.0623
Cc1nc(Nc2ncc(C(=O)Nc3c(C)cccc3Cl)s2)cc(N2CCN(CCO)CC2)n1 [Dasatinib] + CC(=O)Nc1cccc(-n2c(=O)n(C3CC3)c(=O)c3c(Nc4ccc(I)cc4F)n(C)c(=O)c(C)c32)c1 [Trametinib] (first compound max 2 µM, 7x7, partner max 1 µM) | 0.227 | 0.644 | 0.494 | 0.837 | 0.832 | 0.556 | 0.139 | 0.816 | 0.559 | 0.407 | 0.344 | 0.928 | 0.998 | 0.955 | 0.735 | 0.0843
COc1cc2ncnc(Nc3ccc(F)c(Cl)c3)c2cc1OCCCN1CCOCC1 [Gefitinib] + CC(C)n1c(=O)n(C)c2cnc3cc(F)c(-c4ccc(OCCCN5CCCCC5)nc4)cc3c21 [AZD1390] (first compound max 10 µM, 7x7, partner max 0.3 µM) | 0.217 | 0.053 | 0.0817 | 0.0767 | 0.126 | 0.0768 | 0.0869 | 0.227 | 0.311 | 0.214 | 0.147 | 0.29 | 0.255 | 0.125 | 0.121 | -0.066
CS(=O)(=O)CCNCc1ccc(-c2ccc3ncnc(Nc4ccc(OCc5cccc(F)c5)c(Cl)c4)c3c2)o1 [Lapatinib] + C[C@@H](Oc1cc(-c2cnn(C3CCNCC3)c2)cnc1N)c1c(Cl)ccc(F)c1Cl [Crizotinib] (first compound max 10 µM, 7x7, partner max 10 µM) | 0.962 | 0.947 | 0.548 | 0.88 | 0.952 | 0.332 | 0.965 | 0.856 | 0.853 | 0.942 | 0.525 | 0.614 | 0.98 | 0.884 | 0.761 | 0.0211
CC(=O)c1c(C)c2cnc(Nc3ccc(N4CCNCC4)cn3)nc2n(C2CCCC2)c1=O [Palbociclib] + CC1(C)CCC(CN2CCN(c3ccc(C(=O)NS(=O)(=O)c4ccc(NCC5CCOCC5)c([N+](=O)[O-])c4)c(Oc4cnc5[nH]ccc5c4)c3)CC2)=C(c2ccc(Cl)cc2)C1 [Venetoclax] (first compound max 10 µM, 7x7, partner max 1 µM) | 0.308 | 0.057 | 0.0774 | 0.135 | 0.179 | 0.114 | 0.345 | 0.079 | 0.709 | 0.537 | 0.237 | 0.0506 | 0.431 | 0.184 | 0.383 | -0.034
CC(=O)c1c(C)c2cnc(Nc3ccc(N4CCNCC4)cn3)nc2n(C2CCCC2)c1=O [Palbociclib] + Cc1c2c(nn1C)CSCc1cc(n(C)n1)CSc1cc(c3ccccc3c1)OCCCc1c(C(=O)O)n(C)c3c-2c(Cl)ccc13 [AZD5991] (first compound max 10 µM, 7x7, partner max 1 µM) | 0.26 | 0.21 | 0.167 | 0.208 | 0.315 | 0.169 | 0.529 | 0.119 | 1 | 0.956 | 0.413 | 0.142 | 0.675 | 0.263 | 0.412 | -0.0186
CC(=O)c1c(C)c2cnc(Nc3ccc(N4CCNCC4)cn3)nc2n(C2CCCC2)c1=O [Palbociclib] + Cn1cnc2c(F)c(Nc3ccc(Br)cc3Cl)c(C(=O)NOCCO)cc21 [Selumetinib] (first compound max 10 µM, 7x7, partner max 10 µM) | 0.253 | 0.647 | 0.185 | 0.718 | 0.241 | 0.338 | 0.376 | 0.33 | 0.721 | 0.595 | 0.265 | 0.629 | 0.813 | 0.523 | 0.509 | -0.0337
C[C@@H](c1ccc2nccn2c1)n1nnc2ncc(-c3cnn(C)c3)nc21 [Savolitinib] + CC1(C)CCC(CN2CCN(c3ccc(C(=O)NS(=O)(=O)c4ccc(NCC5CCOCC5)c([N+](=O)[O-])c4)c(Oc4cnc5[nH]ccc5c4)c3)CC2)=C(c2ccc(Cl)cc2)C1 [Venetoclax] (first compound max 1 µM, 7x7, partner max 1 µM) | 0.116 | 0.104 | 0.0969 | 0.162 | 0.233 | 0.117 | 0.0333 | 0.0875 | 0.467 | 0.213 | 0.153 | 0.131 | 0.14 | 0.125 | 0.453 | -0.018
C[C@@H](c1ccc2nccn2c1)n1nnc2ncc(-c3cnn(C)c3)nc21 [Savolitinib] + Cc1c2c(nn1C)CSCc1cc(n(C)n1)CSc1cc(c3ccccc3c1)OCCCc1c(C(=O)O)n(C)c3c-2c(Cl)ccc13 [AZD5991] (first compound max 1 µM, 7x7, partner max 1 µM) | 0.225 | 0.151 | 0.195 | 0.154 | 0.2 | 0.0768 | 0.175 | 0.103 | 0.99 | 0.956 | 0.23 | 0.125 | 0.133 | 0.189 | 0.435 | -0.0163
Cn1cnc2c(F)c(Nc3ccc(Br)cc3Cl)c(C(=O)NOCCO)cc21 [Selumetinib] + C=CCn1c(=O)c2cnc(Nc3ccc(N4CCN(C)CC4)cc3)nc2n1-c1cccc(C(C)(C)O)n1 [AZD1775] (first compound max 10 µM, partner max 1 µM) | 0.746 | 0.607 | 0.626 | 0.686 | 0.396 | 0.395 | 0.84 | 0.401 | 1 | 0.966 | 0.34 | 0.728 | 0.828 | 0.63 | 0.6 | 0.039

Source: the supplement of paper PMC11061612
